These results are taken from patent publication US4954516A, “Use of 1-benzyl-aminoalkyl-pyrrolidinones as antidepressants” (Boehringer Ingelheim KG, priority 1986, dated 1990).

In one data set the test system is cholinergic function. As to the kind of experiment: Effect on cholinergic function. To be noted: result in words.
The subject of data set [1] is adrenergic, serotonergic receptors. Description: Receptor bonding (adrenergic, serotonergic). Format: binding. The note with it: for Receptor bonding: result in words.
For data set [2], the system named is isolated one-day-old chicks. Description: chick call test (distress call activation in isolated chicks). Format: in vivo. To be noted: for ED150: Gallus gallus, ip. The source says:
The call frequency of isolated one-day-old chicks which decreases during the course of the test is taken as an experimental behavioural model for manifestations of resignation in depression. […] Neurol. Psychiat.

For the next data set, the system named is Tetrabenazine. Description: Tetrabenazine antagonism (ptosis alleviation, mouse). Format: in vivo. The note with it: Table 1.
A short description of the next data set: LD50, mouse, oral route. To be noted: in vivo, by oral route.

Take “1-acetamido-2-pyrrolidinone [Compound B, reference compound]”: the “Effect on cholinergic function” value in the data set with cholinergic function was “none”. In addition, the Receptor bonding result in data set [1] is listed as “none”. The “Chick call test ED150” value in data set [2] (i.p., Table 1) is given as above 160 mg/kg. Also, in the data set on Tetrabenazine, the Tetrabenazine antagonism (ptosis alleviation, mouse) is above 640 mg/kg.

Compound `O=C1CC(CN2CCOCC2)CN1Cc1ccc(F)cc1` (centres unmarked) [1-(4-Fluorobenzyl)-4-(morpholinomethyl)-pyrrolidin-2-one] had an ED150 in data set [2] (Table II) of 80 mg/kg.

Turning to `COc1ccc(CN2CC(CN)CC2=O)cc1` (centres unmarked) [C, 1-(4-Methoxybenzyl)-4-aminomethyl-pyrrolidin-2-one], the ED150 in data set [2] (Table II) was 25 mg/kg.

In the case of `NCC1CC(=O)N(Cc2ccccc2)C1` (centres unmarked) [Compound A, 1-benzyl-4-aminomethyl-pyrrolidin-2-one], in the data set on cholinergic function, the “Effect on cholinergic function” value is listed as “Demand”. Further, the LD50 in the data set “LD50, mouse, oral route” was above 2000 mg/kg. Further, in data set [1], the IC50 was above 10 µM and the Receptor bonding result is “none”. For the same compound, in data set [2] (Table 1), the ED150 is 40 mg/kg. In the data set on Tetrabenazine, this compound displayed a Tetrabenazine antagonism (ptosis alleviation, mouse) of 100 mg/kg.

`NCC1CC(=O)N(Cc2ccc(F)cc2)C1` (centres unmarked) [D, 1-(4-Fluorobenzyl)-4-aminomethyl-pyrrolidin-2-one] displayed an ED150 in data set [2] (Table II) of 20 mg/kg.

Consider `CN1CCN(CC2CC(=O)N(Cc3ccccc3)C2)CC1` (centres unmarked) [H, 1-Benzyl-4-(N-methylpiperazinylmethyl)-pyrrolidin-2-one], for which the ED150 in data set [2] (Table II) came to 18 mg/kg.

`CCN(CC)CC1CCC(=O)N1Cc1ccccc1` (centres unmarked) [J, 1-Benzyl-5-diethylaminomethyl-pyrrolidin-2-one]: the ED150 in data set [2] (Table II) was 0.01 mg/kg.

`O=C1CCC(CN2CCCC2)N1Cc1ccccc1` (centres unmarked) [K, 1-Benzyl-5-pyrrolidinomethyl-pyrrolidin-2-one] displayed an ED150 in data set [2] (Table II) of 0.1 mg/kg.

Turning to `CN(C)CC1CCC(=O)N1Cc1ccc(Cl)cc1` (centres unmarked) [L, 1-(p-chlorobenzyl)-5-dimethylaminomethyl-pyrrolidin-2-one], the ED150 in data set [2] (Table II) was 0.1 mg/kg.

In general, LD50 refers to the dose at which mortality reaches 50%. In general, IC50 refers to the concentration needed to halve the response being measured. Read a low IC50 as greater potency.
